Results published in US8663629B2, “Kallikrein-binding “kunitz domain” proteins and analogues thereof” (Dyax Corp., priority 1994, dated 2014).
Blank lines part the entries; values can stand above or below the substance they belong to. Bridge positions count the residues as written; N and C are the ends. Ends that are not written are not given here. * marks the point of attachment. CH2F = FC*

Legend:
plasma Kallikrein [1] = molecular target: T1, plasma Kallikrein (Homo sapiens, UniProt P03952); conditions: ANGL87; cited from earlier work
Target sequence in this assay (P03952 20-390): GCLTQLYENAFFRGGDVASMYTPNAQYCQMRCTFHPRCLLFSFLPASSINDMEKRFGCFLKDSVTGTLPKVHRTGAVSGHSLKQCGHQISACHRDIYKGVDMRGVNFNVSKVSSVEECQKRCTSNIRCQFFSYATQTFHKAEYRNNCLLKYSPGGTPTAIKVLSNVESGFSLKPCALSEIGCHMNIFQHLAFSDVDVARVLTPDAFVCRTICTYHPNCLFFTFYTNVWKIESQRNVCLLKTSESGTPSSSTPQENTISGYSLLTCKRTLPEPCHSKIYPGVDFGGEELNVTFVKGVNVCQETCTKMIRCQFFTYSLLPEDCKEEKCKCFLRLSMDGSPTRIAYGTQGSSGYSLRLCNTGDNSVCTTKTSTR
Target sequence in this assay (P03952 391-638): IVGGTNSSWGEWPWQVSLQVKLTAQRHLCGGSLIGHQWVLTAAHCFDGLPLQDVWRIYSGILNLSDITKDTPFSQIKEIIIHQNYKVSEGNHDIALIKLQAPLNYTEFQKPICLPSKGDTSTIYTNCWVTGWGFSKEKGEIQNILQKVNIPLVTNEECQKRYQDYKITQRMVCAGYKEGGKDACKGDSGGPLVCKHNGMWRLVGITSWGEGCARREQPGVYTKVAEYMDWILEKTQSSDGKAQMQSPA

Trypsin [2] = conditions: ANGL87; cited from earlier work
Plasmin [3] = molecular target: T2, Plasmin (Homo sapiens, UniProt P00747); assay: biochemical
T2 sequence (P00747 581-810 limits assumed, species assumed): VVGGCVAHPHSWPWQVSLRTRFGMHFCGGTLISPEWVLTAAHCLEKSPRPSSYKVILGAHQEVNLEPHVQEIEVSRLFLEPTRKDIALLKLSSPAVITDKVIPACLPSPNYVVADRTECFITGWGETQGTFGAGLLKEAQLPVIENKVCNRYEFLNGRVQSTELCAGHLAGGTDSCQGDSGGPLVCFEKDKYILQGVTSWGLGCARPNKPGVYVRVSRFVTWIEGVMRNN
T2 sequence (P00747 97-580 partner limits assumed, species assumed): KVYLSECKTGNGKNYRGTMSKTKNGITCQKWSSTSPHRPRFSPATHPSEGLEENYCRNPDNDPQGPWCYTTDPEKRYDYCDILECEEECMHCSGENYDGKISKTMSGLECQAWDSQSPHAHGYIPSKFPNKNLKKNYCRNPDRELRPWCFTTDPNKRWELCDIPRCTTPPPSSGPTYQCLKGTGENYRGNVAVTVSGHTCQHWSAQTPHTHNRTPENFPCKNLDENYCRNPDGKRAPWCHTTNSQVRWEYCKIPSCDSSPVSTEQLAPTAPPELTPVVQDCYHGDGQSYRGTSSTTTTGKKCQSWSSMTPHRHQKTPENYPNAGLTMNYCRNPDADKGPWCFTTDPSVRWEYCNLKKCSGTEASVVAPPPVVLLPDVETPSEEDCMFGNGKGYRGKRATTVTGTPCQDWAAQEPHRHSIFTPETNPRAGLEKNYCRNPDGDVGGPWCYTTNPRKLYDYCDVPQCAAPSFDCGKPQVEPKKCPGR
Excerpt: (§1) A second method appropriate for measuring the affinity of inhibitors for enzymes is to measure the ability of the inhibitor to slow the action of the enzyme. This method requires, depending on the speed at which the enzyme cleaves substrate and the availability of chromogenic or fluorogenic substrates, tens of micrograms to milligrams of relatively pure inhibitor.

pKA (plasma kallikrein) = pKA (plasma kallikrein) (Homo sapiens, UniProt P03952); assay: biochemical
Chain of pKA (plasma kallikrein) (P03952 391-638 limits assumed): as the sequence (P03952 391-638) above
Chain of pKA (plasma kallikrein) (P03952 20-390 limits assumed): as the sequence (P03952 20-390) above
Excerpt: as §1

Plasmin [4] = molecular target: T2, Plasmin; assay: Display-phage binding to plasmin target (specificity); conditions: compared to the parental phage display LACI-K1
Thrombin = Thrombin (Homo sapiens, UniProt P00734); assay: Display-phage binding to thrombin target (specificity); conditions: compared to the parental phage display LACI-K1
Trypsin [5] = assay: Display-phage binding to trypsin target (specificity); conditions: compared to the parental phage display LACI-K1
plasma Kallikrein [6] = molecular target: T1, plasma Kallikrein; assay: Display-phage binding to human plasma kallikrein-agarose beads; set-up: The light chain (248 residues) carries the catalytic site; purchased Calbiochem #420302
Protocol: This method is highly sensitive because the genetic packages can be amplified. We obtain at least semiquantitative values for the binding constants by use of a pH step gradient.
The overall scheme for selecting a LACI(K1) variant to bind to a given protease involves incubation of the phage-display library with the kallikrein-beads of interest in a buffered solution (PBS containing 1 mg/ml BSA) followed by washing away the unbound and poorly retained display-phage variant with PBS containing 0.1% Tween 20. Kallikrein beads were made by coupling human plasma Kallikrein (Calbiochem, San Diego, Calif., #420302) to agarose beads using Reactigel (6×) (Pierce, Rockford, Ill., #202606). […]
The neutralized eluted display-phage can be either used: • i) to inoculate an F^+ strain of E. coli to generate a new display-phage stock, to be used for subsequent rounds of selection (so-called conventional screening), or • ii) be used directly for another immediate round of selection with the protease beads (so-called quick screening). Typically, three rounds of either method, or a combination of the two, are performed to give rise to the final selected display-phage from which a representative number are sequenced and analyzed for binding properties either as pools of display-phage or as individual clones.
Target sequence in this assay (P03952 391-638 limits assumed): as the sequence (P03952 391-638) above
Target sequence in this assay (P03952 20-390 limits assumed): as the sequence (P03952 20-390) above

Substance: Ala-Phe-Lys-CH2F
- inhibition of plasma kallikrein (plasma Kallikrein [1]): active-centre-directed inhibitor
- inhibition of trypsin (Trypsin [2]): active-centre-directed inhibitor

Substance: MHSFCAFKADDGHCKANHQRFFFNIFTRQCEEFSYGGCGGNQNRFESLEECKKMCTRD (disulfide 5-55, 14-38, 30-51) [KKII/3#6]
- Ki (Plasmin [3]): 10 µM
- Ki (pKA (plasma kallikrein)): < 0.0005 µM
- Ki for kallikrein (pKA (plasma kallikrein); stated in words): nanomolar range
- Ki for kallikrein relative to wild-type LACI and BPTI (pKA (plasma kallikrein); versus both wild-type LACI and BPTI): over 100 times

- relative binding of phage display clones, target Plasmin (Plasmin [4]): (88)^4
- relative binding of phage display clones, target Thrombin (Thrombin): (1.1)
- relative binding of phage display clones, target Trypsin (Trypsin [5]): (0.3)
- relative binding of phage display clones, target Trypsin, two washes (Trypsin [5]; two washes): (0.8)
- relative binding of phage display clones, target Kallikrein (plasma Kallikrein [6]; compared to the parental phage display LACI-K1): (1.7)
- Relative Binding (plasma Kallikrein [6]; fraction bound relative to the parental display-phage LACI(K1)): 6.0
Substance: bovine pancreatic trypsin inhibitor [BPTI]
